Measured values taken from PubChem BioAssay AID1963867 (Molecular Pharmacology Branch, DTP, NCI, 2024).
pIC50: −log10 of the molar value.

System: KRAS-mutant PDC tumor spheroid with HUVEC/MSC, viability
Assay: Anticancer human tumor 327498-153-R-J2-PDC patient-derived uterine carcinosarcoma cell line growth inhibition [KRAS2]
Settings: for pIC50: curve of first compound; for viability, T/C: stronger effect = lower value
Procedure, shortened: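 KRAS-mutant tumor cells were grown as spheroids with HUVEC endothelial cells and human MSCs as stroma. Targeted agents were tested alone and with KRAS pathway inhibitors. Doses started at or near clinical Cmax, or 10 microM, descending half-log.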

[1] = second compound 0.1 µM, first compound 0.01 µM
[2] = second compound 0.1 µM, first compound 0.0316 µM
[3] = second compound 0.1 µM, first compound 0.1 µM
[4] = second compound 0.1 µM, first compound 0.316 µM
[5] = second compound 0.1 µM, first compound 1 µM
[6] = second compound 0.1 µM, first compound 3.16 µM
[7] = second compound 0.316 µM, first compound 0.01 µM
[8] = second compound 0.316 µM, first compound 0.0316 µM
[9] = second compound 0.316 µM, first compound 0.1 µM
[10] = second compound 0.316 µM, first compound 0.316 µM
[11] = second compound 0.316 µM, first compound 1 µM
[12] = second compound 0.316 µM, first compound 3.16 µM
[13] = second compound 1 µM, first compound 0.01 µM
[14] = second compound 1 µM, first compound 0.0316 µM
[15] = second compound 1 µM, first compound 0.1 µM
[16] = second compound 1 µM, first compound 0.316 µM
[17] = second compound 1 µM, first compound 1 µM
[18] = second compound 1 µM, first compound 3.16 µM
[19] = second compound 3.16 µM, first compound 0.01 µM
[20] = second compound 3.16 µM, first compound 0.0316 µM
[21] = second compound 3.16 µM, first compound 0.1 µM
[22] = second compound 3.16 µM, first compound 0.316 µM
[23] = second compound 3.16 µM, first compound 1 µM
[24] = second compound 3.16 µM, first compound 3.16 µM
[25] = second compound 10 µM, first compound 0.01 µM
[26] = second compound 10 µM, first compound 0.0316 µM
[27] = second compound 10 µM, first compound 0.1 µM
[28] = second compound 10 µM, first compound 0.316 µM
[29] = second compound 10 µM, first compound 1 µM
[30] = second compound 10 µM, first compound 3.16 µM
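Further: spheroids exposed to agents for seven days before reading.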
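Wherever viability, T/C is given: 100% = DMSO vehicle wells so lower means fewer viable cells.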

| SMILES | pIC50 (second compound 0.1 µM) | pIC50 (second compound 0.316 µM) | pIC50 (second compound 1 µM) | pIC50 (second compound 3.16 µM) | pIC50 (second compound 10 µM) | viability, T/C [1] | viability, T/C [2] | viability, T/C [3] | viability, T/C [4] | viability, T/C [5] | viability, T/C [6] | viability, T/C [7] | viability, T/C [8] | viability, T/C [9] | viability, T/C [14] | viability, T/C [15] | viability, T/C [20] | viability, T/C [21] | viability, T/C [26] | viability, T/C [27] | also measured |
| --- | --- | --- | --- | --- | --- | --- | --- | --- | --- | --- | --- | --- | --- | --- | --- | --- | --- | --- | --- | --- | --- |
| CC(=O)OC12COC1CC(O)C1(C)C(=O)C(O)C3=C(C)C(OC(=O)C(O)C(NC(=O)OC(C)(C)C)c4ccccc4)CC(O)(C(OC(=O)c4ccccc4)C21)C3(C)C (stereo not given) + C=CC(=O)N1CCN(c2nc(=O)n(-c3c(C)ccnc3C(C)C)c3nc(-c4c(O)cccc4F)c(F)cc23)C(C)C1 | > 8.00 | > 8.00 | > 8.00 | > 8.00 | > 8.00 | 8.43% | 6.6% | 5.43% | 6.55% | 9.48% | 11.1% | 7.73% | 6.11% | 5.72% | 5.71% | 10.5% | 7.63% | 7.71% | 9.72% | 12.5% | viability, T/C [10]: 7.34%; viability, T/C [11]: 8.77%; viability, T/C [12]: 13.1%; viability, T/C [13]: 9.81%; viability, T/C [16]: 8.73%; viability, T/C [17]: 8.75%; viability, T/C [18]: 10.7%; viability, T/C [19]: 9.54%; viability, T/C [22]: 10.1%; viability, T/C [23]: 11.2%; viability, T/C [24]: 12.2%; viability, T/C [25]: 11.1%; viability, T/C [28]: 13.3%; viability, T/C [29]: 12.3%; viability, T/C [30]: 12.8% |
| CN(C)C/C=C/C(=O)Nc1cc2c(Nc3ccc(F)c(Cl)c3)ncnc2cc1O[C@H]1CCOC1 + C=CC(=O)N1CCN(c2nc(=O)n(-c3c(C)ccnc3C(C)C)c3nc(-c4c(O)cccc4F)c(F)cc23)C(C)C1 | > 9.50 | < 7.00 | < 7.00 | < 7.00 | < 7.00 | 101% | 110% | 109% | – | – | – | 106% | 116% | 115% | 115% | 103% | 99.2% | 96.7% | 111% | 115% | viability, T/C (second compound 0.1 µM, first compound 0.000316 µM): 86.9%; viability, T/C (second compound 0.1 µM, first compound 0.001 µM): 95.8%; viability, T/C (second compound 0.1 µM, first compound 0.00316 µM): 102%; viability, T/C (second compound 0.316 µM, first compound 0.000316 µM): 87.5%; viability, T/C (second compound 0.316 µM, first compound 0.001 µM): 94.9%; viability, T/C (second compound 0.316 µM, first compound 0.00316 µM): 97%; viability, T/C (second compound 1 µM, first compound 0.000316 µM): 85.5%; viability, T/C (second compound 1 µM, first compound 0.001 µM): 97.5%; viability, T/C (second compound 1 µM, first compound 0.00316 µM): 92.8%; viability, T/C [13]: 101%; viability, T/C (second compound 3.16 µM, first compound 0.000316 µM): 82.6%; viability, T/C (second compound 3.16 µM, first compound 0.001 µM): 86.9%; viability, T/C (second compound 3.16 µM, first compound 0.00316 µM): 91.8%; viability, T/C [19]: 96.7%; viability, T/C (second compound 10 µM, first compound 0.000316 µM): 87.2%; viability, T/C (second compound 10 µM, first compound 0.001 µM): 100%; viability, T/C (second compound 10 µM, first compound 0.00316 µM): 99.6%; viability, T/C [25]: 105% |
| Cn1nccc1Nc1nccc(-c2cc3c(s2)C(C)(C)N(CCN2CCOCC2)C3=O)n1 + CNCc1ccccc1-c1csc(C(C)Nc2nc(C)nc3cc(OC)c(OC)cc23)c1 | 5.79 | 5.93 | 5.99 | > 7.50 | > 7.50 | – | 73.9% | 76.8% | 64% | 55.7% | 43.5% | – | 77.7% | 62.6% | 62% | 62% | 0.13% | 0.11% | 0.14% | 0.68% | viability, T/C (second compound 0.1 µM, first compound 10 µM): 35.9%; viability, T/C [10]: 64.6%; viability, T/C [11]: 50.2%; viability, T/C [12]: 42.2%; viability, T/C (second compound 0.316 µM, first compound 10 µM): 32.5%; viability, T/C [16]: 58.6%; viability, T/C [17]: 48.2%; viability, T/C [18]: 41.3%; viability, T/C (second compound 1 µM, first compound 10 µM): 34.1%; viability, T/C [22]: 0.1%; viability, T/C [23]: 2.37%; viability, T/C [24]: 0.1%; viability, T/C (second compound 3.16 µM, first compound 10 µM): 0.18%; viability, T/C [28]: 0.13%; viability, T/C [29]: 0.38%; viability, T/C [30]: 0.22%; viability, T/C (second compound 10 µM, first compound 10 µM): 0.23% |
